These results are taken from PMC9296036, “A peptide interfering with the dimerization of oncogenic KITENIN protein and its stability suppresses colorectal tumour progression” (Clinical and Translational Medicine, 2022).

Ends that are not written are not given here.

One assay deals with CT-26/iRFP/KITENIN cells. Kind of assay: Transwell cell invasion assay, CT-26/iRFP/KITENIN or CT-26/KITENIN-V5 cells. It counts as cell-based, mouse. Particulars: increasing doses of KDIP, compared with scramble peptide.
Assay [1] relates to CT-26/iRFP/KITENIN-V5 liver metastases. Description: Intrasplenic hepatic metastasis model, CT-26/iRFP/KITENIN-V5 cells in syngeneic mice. It counts as in vivo, mouse. On the procedure:
For hepatic metastasis analysis, 5‐ to 6‐week‐old Balb/c mice were obtained from OrientBio, Inc. (Seongnam, Korea) and housed in metal cages with free access to water and food. A syngeneic mouse model of colorectal liver metastasis was established by an infusion of tumour cells into the portal system via intrasplenic injection.[27] In brief, CT‐26/KITENIN‐iRFP‐expressing cells (2 × 10^5 cells/mouse) were injected into the spleen. Splenectomy was performed 15 min after an injection of CT‐26 cells. Mice were randomly assigned to two groups: scrambled peptide and KDIP (1, 5 mg/kg). Each peptide was given via intravenous injection six times for 2 weeks after 7 days of inoculation of tumour cells. Metastatic tumour nodules in the liver with a diameter of >1.0 mm were counted using a microscope, and a metastasis score was allocated based on nodule size as follows: 0 (no gross metastasis), 1 (tumour size >1 mm), 2 (tumour size 1 >5 mm) and 3 (tumour size >10 mm). The metastasis score was obtained by multiplying the number and the score of nodules. Fluorescence images of liver nodules expressing iRFP were taken using a Fluorescence‐labelled Organism Bioimaging Instrument (Cellgentek, Korea) and total fluorescence emitted from liver nodules was measured and compared between groups.
Effect of KAI1 C‐terminal interacting tetraspanin (KITENIN) dimerization‐interfering peptide (KDIP) on tumour growth and metastasis in in vivo mouse model of colorectal cancer (CRC). (A) Treatment with KDIP decreases cell invasion of KITENIN‐overexpressing CT‐26 cells. Cell invasion assay was performed in CT‐26 cells transfected with KITENIN and treated with scr‐peptide or KDIP (1 μM) (upper panel). […] For the evaluation of metastasis, total fluorescence emitted from liver nodules expressing iRFP was measured and counted (left panel) or metastatic tumour growth was counted as nodules that migrated to the surface of the liver, and a metastatic score was obtained by multiplying it with size (middle panel). Metastatic score or total fluorescence is represented as mean ± SEM. […]

Setting [2] is: KDIP 5 mg/kg versus scrambled peptide, immunoblot densitometry, n = 6.

In the case of YARVRRRGPRRWRLVSDEAV [KDIP], the “cell invasion of CT-26/KITENIN-V5 cells (in words)” value in the assay on CT-26/iRFP/KITENIN cells is listed as “significantly reduced”. Also, in assay [1] (KDIP 5 mg/kg intravenously for 2 weeks, compared with scramble peptide group), the “fluorescence of the hepatic nodule (liver metastasis, in words)” value is recorded as “significantly reduced”. In assay [1] (setting [2]), the “KITENIN level in metastatic liver nodules (in words)” value is on record as “significantly decreased” and the “protein level of Myo10 in metastatic liver nodules (in words)” value is listed as “significantly decreased”.
